Measurements published in the kinase profiling compilation of Christmann-Franck et al. (2016).

Columns and labels:
Assay in all cases: SelectScreen, TR FRET
DAPK1 (human) = DAPK1 (human) (UniProt P53355)
IKBKE (human) = IKBKE (human) (UniProt Q14164)
MAPK14 (human) = MAPK14 (human) (UniProt Q16539)
FGFR2 (human) = FGFR2 (human) (UniProt P21802)
TYK2 JH1 JH2 (human) = TYK2 JH1 JH2 (human) (UniProt P29597)
NEK4 (human) = NEK4 (human) (UniProt P51957)
[1] = target: PRKAA2 PRKAB1 PRKAG1 (human) (UniProt Q9Y478+P54646+P54619); details: compound 0.1 µM
CDK7 CCNH MNAT1 (human) = CDK7 CCNH MNAT1 (human) (UniProt P50613+P51948+P51946)
NUAK1 (human) = NUAK1 (human) (UniProt O60285)
IRAK1 (human) = IRAK1 (human) (UniProt P51617)
Sequence of IRAK1 (human) (P51617 whole entry, looked up): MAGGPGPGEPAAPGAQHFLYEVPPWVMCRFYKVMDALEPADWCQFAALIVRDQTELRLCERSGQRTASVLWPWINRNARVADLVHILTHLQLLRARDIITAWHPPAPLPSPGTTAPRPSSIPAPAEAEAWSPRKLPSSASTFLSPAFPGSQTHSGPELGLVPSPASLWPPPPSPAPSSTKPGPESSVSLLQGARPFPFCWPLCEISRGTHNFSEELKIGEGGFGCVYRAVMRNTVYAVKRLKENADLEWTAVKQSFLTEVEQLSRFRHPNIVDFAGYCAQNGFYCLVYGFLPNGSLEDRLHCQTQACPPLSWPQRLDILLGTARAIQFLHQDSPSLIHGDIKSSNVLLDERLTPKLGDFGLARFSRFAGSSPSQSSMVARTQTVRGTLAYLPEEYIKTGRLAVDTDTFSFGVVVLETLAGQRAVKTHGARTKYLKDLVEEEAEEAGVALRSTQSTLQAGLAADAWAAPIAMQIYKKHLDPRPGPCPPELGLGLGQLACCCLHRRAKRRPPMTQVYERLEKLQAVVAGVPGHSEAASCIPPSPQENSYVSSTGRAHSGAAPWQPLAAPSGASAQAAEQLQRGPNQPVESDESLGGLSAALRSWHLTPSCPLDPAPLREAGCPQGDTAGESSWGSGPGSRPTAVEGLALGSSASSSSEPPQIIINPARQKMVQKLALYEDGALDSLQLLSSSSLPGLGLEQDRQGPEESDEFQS

PAK1 (human) = PAK1 (human) (UniProt Q13153)
MAP2K1 (human) = MAP2K1 (human) (UniProt Q02750)
AKT3 (human) = AKT3 (human) (UniProt Q9Y243)
NTRK1 (human) = NTRK1 (human) (UniProt P04629)
JAK2 JH1 JH2 (human) = JAK2 JH1 JH2 (human) (UniProt O60674)
CDK2 CCNA2 (human) = CDK2 CCNA2 (human) (UniProt P24941+P20248)
GRK4 (human) = GRK4 (human) (UniProt P32298)
GSK3A (human) = GSK3A (human) (UniProt P49840)
EPHA3 (human) = EPHA3 (human) (UniProt P29320)
MAPK13 (human) = MAPK13 (human) (UniProt O15264)
Sequence of MAPK13 (human) (O15264 whole entry, looked up): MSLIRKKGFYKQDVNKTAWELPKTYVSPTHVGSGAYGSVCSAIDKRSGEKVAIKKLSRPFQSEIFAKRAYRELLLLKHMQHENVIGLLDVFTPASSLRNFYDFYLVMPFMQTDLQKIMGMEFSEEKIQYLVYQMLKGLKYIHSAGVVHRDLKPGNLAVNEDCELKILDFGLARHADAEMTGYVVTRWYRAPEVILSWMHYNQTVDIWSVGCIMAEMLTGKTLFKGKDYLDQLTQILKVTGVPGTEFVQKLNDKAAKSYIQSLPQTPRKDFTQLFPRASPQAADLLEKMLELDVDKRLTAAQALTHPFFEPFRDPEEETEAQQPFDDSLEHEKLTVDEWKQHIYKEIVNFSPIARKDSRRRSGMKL

GRK6 (human) = GRK6 (human) (UniProt P43250)
AKT1 (human) = AKT1 (human) (UniProt P31749)
PLK1 (human) = PLK1 (human) (UniProt P53350)
SYK (human) = SYK (human) (UniProt P43405)
[2] = tested on: RAF1 (human), P04049 [Y340D/Y341D]
PRKCQ (human) = PRKCQ (human) (UniProt Q04759)
Sequence of PRKCQ (human) (Q04759 whole entry, looked up): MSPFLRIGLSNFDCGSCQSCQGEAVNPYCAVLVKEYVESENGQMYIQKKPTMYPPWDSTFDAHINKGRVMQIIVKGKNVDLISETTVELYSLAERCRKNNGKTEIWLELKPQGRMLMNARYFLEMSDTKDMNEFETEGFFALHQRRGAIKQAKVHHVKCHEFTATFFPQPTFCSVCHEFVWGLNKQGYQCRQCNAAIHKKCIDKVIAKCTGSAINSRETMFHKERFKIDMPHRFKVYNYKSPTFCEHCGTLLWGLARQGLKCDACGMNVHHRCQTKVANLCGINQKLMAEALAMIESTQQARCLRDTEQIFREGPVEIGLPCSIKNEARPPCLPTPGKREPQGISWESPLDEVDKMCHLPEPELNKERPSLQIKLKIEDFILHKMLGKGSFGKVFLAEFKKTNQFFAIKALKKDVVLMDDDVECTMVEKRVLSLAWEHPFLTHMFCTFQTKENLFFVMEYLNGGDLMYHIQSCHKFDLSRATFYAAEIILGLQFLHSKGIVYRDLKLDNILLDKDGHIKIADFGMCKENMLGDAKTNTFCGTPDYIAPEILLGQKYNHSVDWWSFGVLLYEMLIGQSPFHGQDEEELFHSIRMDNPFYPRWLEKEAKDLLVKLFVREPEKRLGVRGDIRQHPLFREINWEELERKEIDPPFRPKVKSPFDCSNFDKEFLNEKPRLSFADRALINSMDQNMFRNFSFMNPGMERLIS

TAOK2 (human) = TAOK2 (human) (UniProt Q9UL54)
Sequence of TAOK2 (human) (Q9UL54 whole entry, looked up): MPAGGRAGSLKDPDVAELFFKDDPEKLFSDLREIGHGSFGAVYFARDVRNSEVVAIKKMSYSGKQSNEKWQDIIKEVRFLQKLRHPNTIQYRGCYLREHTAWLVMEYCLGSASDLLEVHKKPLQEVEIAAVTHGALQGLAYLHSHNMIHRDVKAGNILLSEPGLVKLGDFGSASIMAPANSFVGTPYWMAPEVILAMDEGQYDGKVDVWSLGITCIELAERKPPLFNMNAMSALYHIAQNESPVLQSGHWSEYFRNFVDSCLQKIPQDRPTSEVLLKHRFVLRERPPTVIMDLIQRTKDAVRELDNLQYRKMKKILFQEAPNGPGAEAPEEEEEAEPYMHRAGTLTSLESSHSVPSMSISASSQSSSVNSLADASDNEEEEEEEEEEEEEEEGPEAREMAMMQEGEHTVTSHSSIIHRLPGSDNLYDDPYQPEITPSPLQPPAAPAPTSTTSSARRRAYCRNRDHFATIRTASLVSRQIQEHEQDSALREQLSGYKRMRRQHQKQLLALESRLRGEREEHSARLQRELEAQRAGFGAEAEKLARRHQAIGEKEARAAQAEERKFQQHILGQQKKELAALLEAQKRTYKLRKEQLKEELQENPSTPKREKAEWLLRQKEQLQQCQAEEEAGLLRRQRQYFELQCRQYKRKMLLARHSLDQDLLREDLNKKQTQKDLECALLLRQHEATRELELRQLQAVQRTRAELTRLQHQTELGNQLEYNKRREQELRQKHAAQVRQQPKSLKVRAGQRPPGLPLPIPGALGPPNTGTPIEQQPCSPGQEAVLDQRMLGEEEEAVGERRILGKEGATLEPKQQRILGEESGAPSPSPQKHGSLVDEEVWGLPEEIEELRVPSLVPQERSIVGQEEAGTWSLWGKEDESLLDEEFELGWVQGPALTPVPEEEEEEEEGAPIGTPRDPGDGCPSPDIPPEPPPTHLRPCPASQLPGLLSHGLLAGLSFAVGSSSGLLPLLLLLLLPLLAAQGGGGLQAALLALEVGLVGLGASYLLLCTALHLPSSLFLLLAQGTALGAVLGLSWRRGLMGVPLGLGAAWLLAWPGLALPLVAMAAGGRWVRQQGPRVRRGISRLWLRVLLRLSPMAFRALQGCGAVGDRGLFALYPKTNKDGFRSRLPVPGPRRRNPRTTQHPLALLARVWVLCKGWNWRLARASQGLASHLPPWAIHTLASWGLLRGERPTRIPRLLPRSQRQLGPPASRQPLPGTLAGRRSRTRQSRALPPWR

BTK (human) = BTK (human) (UniProt Q06187)

Sequence of FGFR2 (human) (P21802 whole entry, looked up): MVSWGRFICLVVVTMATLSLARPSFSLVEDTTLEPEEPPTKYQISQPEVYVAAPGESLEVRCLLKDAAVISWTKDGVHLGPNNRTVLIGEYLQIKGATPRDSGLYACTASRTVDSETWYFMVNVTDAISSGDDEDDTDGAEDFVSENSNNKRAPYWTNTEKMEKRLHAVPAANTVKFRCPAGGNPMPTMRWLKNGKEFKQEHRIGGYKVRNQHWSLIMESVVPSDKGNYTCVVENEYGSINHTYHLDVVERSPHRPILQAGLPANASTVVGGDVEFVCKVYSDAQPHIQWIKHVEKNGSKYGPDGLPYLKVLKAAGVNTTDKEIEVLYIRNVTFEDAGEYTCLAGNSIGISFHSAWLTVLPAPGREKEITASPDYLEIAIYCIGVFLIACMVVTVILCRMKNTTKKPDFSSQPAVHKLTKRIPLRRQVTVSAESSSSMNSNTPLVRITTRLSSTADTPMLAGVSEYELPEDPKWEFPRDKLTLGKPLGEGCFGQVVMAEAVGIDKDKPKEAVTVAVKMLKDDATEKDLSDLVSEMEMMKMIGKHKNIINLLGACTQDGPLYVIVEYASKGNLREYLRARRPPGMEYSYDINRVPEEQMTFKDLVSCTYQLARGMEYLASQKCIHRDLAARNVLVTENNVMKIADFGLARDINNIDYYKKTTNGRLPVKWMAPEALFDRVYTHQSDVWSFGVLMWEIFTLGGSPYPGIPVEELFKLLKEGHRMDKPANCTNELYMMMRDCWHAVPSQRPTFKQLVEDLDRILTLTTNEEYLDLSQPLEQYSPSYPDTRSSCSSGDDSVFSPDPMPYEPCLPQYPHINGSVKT
Sequence of NEK4 (human) (P51957 whole entry, looked up): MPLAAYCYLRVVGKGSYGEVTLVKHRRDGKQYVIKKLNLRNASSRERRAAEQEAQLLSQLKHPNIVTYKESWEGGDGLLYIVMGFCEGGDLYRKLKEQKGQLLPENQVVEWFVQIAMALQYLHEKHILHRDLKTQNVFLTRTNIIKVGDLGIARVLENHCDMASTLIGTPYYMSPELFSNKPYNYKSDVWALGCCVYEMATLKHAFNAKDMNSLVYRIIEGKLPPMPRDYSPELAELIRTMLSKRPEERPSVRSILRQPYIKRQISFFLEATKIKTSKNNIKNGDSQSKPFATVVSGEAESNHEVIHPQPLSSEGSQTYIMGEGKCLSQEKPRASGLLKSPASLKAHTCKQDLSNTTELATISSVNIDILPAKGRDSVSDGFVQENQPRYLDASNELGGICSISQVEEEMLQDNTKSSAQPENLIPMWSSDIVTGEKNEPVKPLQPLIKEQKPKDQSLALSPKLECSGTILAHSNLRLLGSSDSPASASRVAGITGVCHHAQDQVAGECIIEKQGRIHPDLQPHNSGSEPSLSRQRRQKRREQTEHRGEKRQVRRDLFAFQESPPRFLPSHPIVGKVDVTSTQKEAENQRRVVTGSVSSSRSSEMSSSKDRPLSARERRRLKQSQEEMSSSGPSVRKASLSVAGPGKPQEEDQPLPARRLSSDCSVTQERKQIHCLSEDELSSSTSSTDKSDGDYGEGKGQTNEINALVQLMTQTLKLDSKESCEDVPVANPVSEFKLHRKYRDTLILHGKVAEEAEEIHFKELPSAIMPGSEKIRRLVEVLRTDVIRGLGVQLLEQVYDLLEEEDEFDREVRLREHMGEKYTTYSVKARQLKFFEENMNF
Sequence of MAPK14 (human) (Q16539 whole entry, looked up): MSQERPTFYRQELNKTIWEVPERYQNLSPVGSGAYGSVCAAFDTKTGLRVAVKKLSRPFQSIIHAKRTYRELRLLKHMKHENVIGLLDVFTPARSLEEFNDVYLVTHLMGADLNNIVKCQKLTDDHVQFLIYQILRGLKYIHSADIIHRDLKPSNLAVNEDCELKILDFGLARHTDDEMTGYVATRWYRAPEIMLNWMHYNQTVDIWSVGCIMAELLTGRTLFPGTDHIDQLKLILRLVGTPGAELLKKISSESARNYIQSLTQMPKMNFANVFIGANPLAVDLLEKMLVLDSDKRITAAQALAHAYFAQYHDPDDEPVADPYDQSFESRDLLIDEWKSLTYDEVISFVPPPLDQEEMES

inhibition (DAPK1 (human); compound 0.1 µM): 21.9%
inhibition (DAPK1 (human); compound 1.0 µM): 2.1%
inhibition (DAPK1 (human); compound 10.0 µM): 14.5%
inhibition (IKBKE (human); compound 0.1 µM): 7.5%
inhibition (IKBKE (human); compound 1.0 µM): 7%
inhibition (IKBKE (human); compound 10.0 µM): 8.6%
inhibition (MAPK14 (human); compound 0.1 µM): 17.9%
inhibition (MAPK14 (human); compound 1.0 µM): 20.8%
inhibition (MAPK14 (human); compound 10.0 µM): 20.1%
inhibition (FGFR2 (human); compound 0.1 µM): 14.2%
inhibition (FGFR2 (human); compound 1.0 µM): 33.5%
inhibition (FGFR2 (human); compound 10.0 µM): 74%
inhibition (TYK2 JH1 JH2 (human); compound 0.1 µM): 5.1%
inhibition (TYK2 JH1 JH2 (human); compound 1.0 µM): 8%
inhibition (TYK2 JH1 JH2 (human); compound 10.0 µM): 23.7%
inhibition (NEK4 (human); compound 0.1 µM): 10.8%
inhibition (NEK4 (human); compound 1.0 µM): 13.5%
inhibition (NEK4 (human); compound 10.0 µM): 37.8%
inhibition [1]: 11.6%
inhibition (CDK7 CCNH MNAT1 (human); compound 0.1 µM): 1%
inhibition (CDK7 CCNH MNAT1 (human); compound 1.0 µM): 6.4%
inhibition (CDK7 CCNH MNAT1 (human); compound 10.0 µM): 11.8%
inhibition (NUAK1 (human); compound 0.1 µM): -10.5%
inhibition (NUAK1 (human); compound 1.0 µM): 13.6%
inhibition (NUAK1 (human); compound 10.0 µM): 63.9%
inhibition (IRAK1 (human); compound 0.1 µM): 7.1%
inhibition (IRAK1 (human); compound 1.0 µM): 27.1%
inhibition (IRAK1 (human); compound 10.0 µM): 66.3%
inhibition (PAK1 (human); compound 0.1 µM): 19.6%
inhibition (PAK1 (human); compound 1.0 µM): 18.5%
inhibition (PAK1 (human); compound 10.0 µM): -12.1%
inhibition (MAP2K1 (human); compound 0.1 µM): 25.7%
inhibition (MAP2K1 (human); compound 1.0 µM): 23.8%
inhibition (MAP2K1 (human); compound 10.0 µM): 13.5%
inhibition (AKT3 (human); compound 0.1 µM): 11.3%
inhibition (AKT3 (human); compound 1.0 µM): 10.6%
inhibition (AKT3 (human); compound 10.0 µM): 14.6%
inhibition (NTRK1 (human); compound 0.1 µM): 18.9%
inhibition (NTRK1 (human); compound 1.0 µM): 37.2%
inhibition (NTRK1 (human); compound 10.0 µM): 68.9%
inhibition (JAK2 JH1 JH2 (human); compound 0.1 µM): 4.4%
inhibition (JAK2 JH1 JH2 (human); compound 1.0 µM): 12.5%
inhibition (JAK2 JH1 JH2 (human); compound 10.0 µM): 41%
inhibition (CDK2 CCNA2 (human); compound 0.1 µM): 17%
inhibition (CDK2 CCNA2 (human); compound 1.0 µM): 18.6%
inhibition (CDK2 CCNA2 (human); compound 10.0 µM): 18.3%
inhibition (GRK4 (human); compound 0.1 µM): 12.9%
inhibition (GRK4 (human); compound 1.0 µM): 11.9%
inhibition (GRK4 (human); compound 10.0 µM): 37.1%
inhibition (GSK3A (human); compound 0.1 µM): 8.6%
inhibition (GSK3A (human); compound 1.0 µM): 12.5%
inhibition (GSK3A (human); compound 10.0 µM): 65.6%
inhibition (EPHA3 (human); compound 0.1 µM): -1.7%
inhibition (EPHA3 (human); compound 1.0 µM): 5.2%
inhibition (EPHA3 (human); compound 10.0 µM): 16.4%
inhibition (MAPK13 (human); compound 0.1 µM): 14.5%
inhibition (MAPK13 (human); compound 1.0 µM): 15.8%
inhibition (MAPK13 (human); compound 10.0 µM): 10%
inhibition (GRK6 (human); compound 0.1 µM): 5.6%
inhibition (GRK6 (human); compound 1.0 µM): 7%
inhibition (GRK6 (human); compound 10.0 µM): 13.4%
inhibition (AKT1 (human); compound 0.1 µM): 17.2%
inhibition (AKT1 (human); compound 1.0 µM): 5.5%
inhibition (AKT1 (human); compound 10.0 µM): 9.1%
inhibition (PLK1 (human); compound 0.1 µM): 8.9%
inhibition (PLK1 (human); compound 1.0 µM): 11.2%
inhibition (PLK1 (human); compound 10.0 µM): 10%
inhibition (SYK (human); compound 0.1 µM): 19.9%
inhibition (SYK (human); compound 1.0 µM): 13.2%
inhibition (SYK (human); compound 10.0 µM): 61.6%
inhibition ([2]; compound 0.1 µM): 26.2%
inhibition ([2]; compound 1.0 µM): 25.4%
inhibition ([2]; compound 10.0 µM): 7%
inhibition (PRKCQ (human); compound 0.1 µM): 7.2%
inhibition (PRKCQ (human); compound 1.0 µM): 7.1%
inhibition (PRKCQ (human); compound 10.0 µM): 7.7%
inhibition (TAOK2 (human); compound 0.1 µM): 10.9%
inhibition (TAOK2 (human); compound 1.0 µM): 7%
inhibition (TAOK2 (human); compound 10.0 µM): -17.5%
inhibition (BTK (human); compound 0.1 µM): 10.9%
inhibition (BTK (human); compound 1.0 µM): 13.4%
inhibition (BTK (human); compound 10.0 µM): 15.4%
Compound: Cn1cc(-c2cnc3ccc4ccc(CC(=O)NCc5ccccn5)cc4c(=O)c3c2)cn1
